In US12492193B2, “Pyrazole derivatives for the treatment of cystic fibrosis” (Fondazione Istituto Italiano Di Tecnologia, priority 2017, dated 2025):

Target: T1, mutant CFTR (Homo sapiens, UniProt P13569, DEL508-508)
T1 construct: expressed in transfected cells
Assay: Fluorescence (HS-YFP) assay for CFTR activity, corrector assay
Type: cell-based
Settings: CFBE41o- and FRT cells with stable expression of mutant CFTR, 24 h compound treatment
How it was run: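 Corrector activity: 24 h compound treatment of HS-YFP/mutant-CFTR CFBE41o- or FRT cells, followed by 30 min forskolin 20 μM + genistein 50 μM at 37° C. Iodide influx (100 mM final) was tracked as fluorescence quenching, with dF/dt extrapolated by exponential fitting; EC50 values derived.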

T1 sequence (P13569 with tags, fused parts or gaps DEL508-508): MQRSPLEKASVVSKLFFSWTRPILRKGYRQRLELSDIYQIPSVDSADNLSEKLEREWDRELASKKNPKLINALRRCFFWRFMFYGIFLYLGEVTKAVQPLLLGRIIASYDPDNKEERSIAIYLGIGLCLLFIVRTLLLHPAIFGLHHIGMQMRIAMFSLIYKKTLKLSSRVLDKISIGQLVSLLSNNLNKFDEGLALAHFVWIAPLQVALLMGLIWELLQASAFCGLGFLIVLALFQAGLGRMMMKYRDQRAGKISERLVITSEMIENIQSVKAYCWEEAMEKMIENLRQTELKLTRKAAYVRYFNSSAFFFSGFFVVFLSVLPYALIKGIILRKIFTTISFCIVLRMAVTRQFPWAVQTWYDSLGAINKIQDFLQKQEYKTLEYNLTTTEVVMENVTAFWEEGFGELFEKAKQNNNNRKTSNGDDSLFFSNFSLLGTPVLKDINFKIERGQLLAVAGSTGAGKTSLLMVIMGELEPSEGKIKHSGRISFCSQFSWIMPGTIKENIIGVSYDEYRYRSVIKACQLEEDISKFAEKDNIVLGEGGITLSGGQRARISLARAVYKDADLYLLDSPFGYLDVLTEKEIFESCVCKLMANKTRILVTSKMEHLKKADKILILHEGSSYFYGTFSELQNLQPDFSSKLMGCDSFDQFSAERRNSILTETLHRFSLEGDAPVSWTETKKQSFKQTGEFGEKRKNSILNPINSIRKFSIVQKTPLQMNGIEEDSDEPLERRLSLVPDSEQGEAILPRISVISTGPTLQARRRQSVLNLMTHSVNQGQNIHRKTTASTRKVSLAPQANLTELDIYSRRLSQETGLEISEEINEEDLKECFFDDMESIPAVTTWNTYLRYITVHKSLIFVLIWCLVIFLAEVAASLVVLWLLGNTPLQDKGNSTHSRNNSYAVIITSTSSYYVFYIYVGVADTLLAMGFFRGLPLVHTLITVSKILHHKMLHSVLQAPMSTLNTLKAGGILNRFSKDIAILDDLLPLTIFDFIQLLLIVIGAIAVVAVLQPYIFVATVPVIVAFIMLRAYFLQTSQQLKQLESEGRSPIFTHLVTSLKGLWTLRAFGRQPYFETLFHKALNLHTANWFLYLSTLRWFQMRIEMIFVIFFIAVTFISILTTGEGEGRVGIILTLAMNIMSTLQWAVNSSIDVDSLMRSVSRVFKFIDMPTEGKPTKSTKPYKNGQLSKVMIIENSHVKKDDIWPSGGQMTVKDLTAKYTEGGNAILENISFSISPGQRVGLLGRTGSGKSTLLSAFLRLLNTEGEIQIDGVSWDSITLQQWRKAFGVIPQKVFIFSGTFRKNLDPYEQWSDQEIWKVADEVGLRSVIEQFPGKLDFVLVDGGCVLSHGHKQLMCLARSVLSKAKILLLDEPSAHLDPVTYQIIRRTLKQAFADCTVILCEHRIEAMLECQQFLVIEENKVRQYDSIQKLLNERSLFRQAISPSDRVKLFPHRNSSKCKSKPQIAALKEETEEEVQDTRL

| Structure (SMILES) | EC50 [nM] |
| --- | --- |
| Cc1nn(-c2cc(C(=O)N(C)c3ccc4c(c3)OCO4)ccn2)c(C(F)(F)F)c1Cl [compound 170, N-(1,3-Benzodioxol-5-yl)-2-[4-chloro-3-methyl-5-(trifluoromethyl)pyrazol-1-yl]-N-methyl-pyridine-4-carboxamide] | > 2000 |
| CN(C(=O)c1cccc(-n2nc(C(F)(F)F)c(Cl)c2OCC23CC(C(=O)O)(C2)C3)c1)c1ccc2c(c1)OC(F)(F)O2 [compound 258, 3-[[4-Chloro-2-[3-[(2,2-difluoro-1,3-benzodioxol-5-yl)-methyl-carbamoyl]phenyl]-5-(trifluoromethyl)pyrazol-3-yl]oxymethyl]bicyclo[1.1.1]pentane-1-carboxylic acid] | < 1000 |
| Cc1nn(-c2cccc(C(=O)Nc3ccc4c(c3)CCCC4)c2)c(C)c1Cl [Int-040] | > 2000 |
| Cc1nc2ccc(N(C)C(=O)c3cccc(-n4nc(C(F)(F)F)c(Cl)c4C)c3)cc2s1 [compound 149, 3-[4-Chloro-5-methyl-3-(trifluoromethyl)pyrazol-1-yl]-N-methyl-N-(2-methyl-1,3-benzothiazol-6-yl)benzamide] | 1000 to 2000 |
| CN(C(=O)c1cccc(-n2nc(C(F)(F)F)cc2OCC2(C(=O)O)CC2)c1)c1ccc2c(c1)OC(F)(F)O2 [compound 265, 1-[[2-[3-[(2,2-Difluoro-1,3-benzodioxol-5-yl)-methyl-carbamoyl]phenyl]-5-(trifluoromethyl)pyrazol-3-yl]oxymethyl]cyclopropanecarboxylic acid] | > 2000 |
| CCOC(=O)CCC(=O)N1CCC(Oc2cc(C(F)(F)F)nn2-c2cccc(C(=O)N(C)c3ccc4c(c3)OC(F)(F)O4)c2)CC1 [compound 260, Ethyl 4-[4-[2-[3-[(2,2-difluoro-1,3-benzodioxol-5-yl)-methyl-carbamoyl]phenyl]-5-(trifluoromethyl)pyrazol-3-yl]oxy-1-piperidyl]-4-oxo-butanoate] | < 1000 |
| Cc1nnc(-c2c(Cl)c(C)nn2-c2cccc(C(=O)N(C)c3ccc4c(c3)OCO4)c2)o1 [compound 129, N-(1,3-Benzodioxol-5-yl)-3-[4-chloro-3-methyl-5-(5-methyl-1,3,4-oxadiazol-2-yl)pyrazol-1-yl]-N-methyl-benzamide] | < 1000 |
| CN(C(=O)c1cccc(-n2nc(-c3ccccn3)cc2C(F)(F)F)c1)c1ccc2c(c1)OCO2 [compound 192, N-(1,3-benzodioxol-5-yl)-N-methyl-3-[3-(2-pyridyl)-5-(trifluoromethyl)pyrazol-1-yl]benzamide] | 1000 to 2000 |
| Cc1nn(-c2cccc(C(=O)N(C)c3ccc4c(c3)OCO4)c2)c(C)c1Cl [compound 015, N-(1,3-Benzodioxol-5-yl)-3-(4-chloro-3,5-dimethyl-pyrazol-1-yl)-N-methyl-benzamide] | < 1000 |
| Cc1cn2cc(N(C)C(=O)c3cccc(-n4nc(C)c(Cl)c4C)c3)ccc2n1 [compound 077, 3-(4-Chloro-3,5-dimethyl-pyrazol-1-yl)-N-methyl-N-(2-methylimidazo[1,2-a]pyridin-6-yl)benzamide] | < 1000 |
| Cc1nn(-c2cccc(C(=O)Nc3ccc4c(c3)COC4)c2)c(C)c1Cl [Int-051] | > 2000 |
| Cc1cc(CO)n(-c2cccc(C(=O)N(C)c3ccc4c(c3)OCO4)c2)n1 [compound 070, N-(1,3-Benzodioxol-5-yl)-3-[5-(hydroxymethyl)-3-methyl-pyrazol-1-yl]-N-methyl-benzamide] | > 2000 |
| Cc1c(Cl)c(C(F)(F)F)nn1-c1cccc(C(=O)N(C)c2cc3c(cc2C(=O)O)OCO3)c1 [compound 179, 6-[[3-[4-chloro-5-methyl-3-(trifluoromethyl)pyrazol-1-yl]benzoyl]-methyl-amino]-1,3-benzodioxole-5-carboxylic acid] | > 2000 |
| CN(C(=O)c1cccc(-n2nc(C(F)(F)F)cc2O[C@H]2CC[C@@H](C(=O)O)CC2)c1)c1ccc2c(c1)OCO2 [compound 216, Cis-4-[2-[3-[1,3-benzodioxol-5-yl(methyl)carbamoyl]phenyl]-5-(trifluoromethyl)pyrazol-3-yl]oxycyclohexane carboxylic acid] | < 1000 |
| CN(C(=O)c1cccc(-n2nc(C(F)(F)F)c(C#N)c2COc2ccc(C(=O)O)cc2)c1)c1ccc2c(c1)OC(F)(F)O2 [compound 224, 4-[[4-Cyano-2-[3-[(2,2-difluoro-1,3-benzodioxol-5-yl)-methyl-carbamoyl]phenyl]-5-(trifluoromethyl)pyrazol-3-yl]methoxy]benzoic acid] | < 1000 |
| Cc1nn(-c2cccc(C(=O)Nc3cccc4c3OC(F)(F)O4)c2)c(C)c1Cl [Int-022, 3-(4-Chloro-3,5-dimethyl-pyrazol-1-yl)-N-(2,2-difluoro-1,3-benzodioxol-4-yl)benzamide] | 1000 to 2000 |
| Cc1c(Cl)c(C(F)(F)F)nn1-c1cccc(C(=O)Nc2ccc3cn(C)nc3c2)c1 [Int-121, 3-[4-Chloro-5-methyl-3-(trifluoromethyl)pyrazol-1-yl]-N-(2-methylindazol-6-yl)benzamide] | > 2000 |
| Cc1nn(-c2cccc(C(=O)N(C)c3ccc4c(c3)OCO4)c2)c(CO)c1Cl [compound 105, N-(1,3-benzodioxol-5-yl)-3-[4-chloro-5-(hydroxylmethyl)-3-methyl-pyrazol-1-yl]-N-methyl-benzamide] | 1000 to 2000 |
| [2H]C([2H])([2H])N(C(=O)c1cccc(-n2nc(C(F)(F)F)c(Cl)c2COc2ccc(C(=O)O)cc2)c1)c1ccc2c(c1)OC(F)(F)O2 [compound 182, 4-[[4-Chloro-2-[3-[(2,2-difluoro-1,3-benzodioxol-5-yl)-(trideuteriomethyl)carbamoyl]phenyl]-5-(trifluoromethyl)pyrazol-3-yl]methoxy]benzoic acid] | < 1000 |
| Cc1nn(-c2cccc(C(=O)Nc3ccc4c(c3)OC(F)(F)C(F)(F)O4)c2)c(C)c1Cl [Int-005, 3-(4-Chloro-3,5-dimethyl-pyrazol-1-yl)-N-(2,2,3,3-tetrafluoro-1,4-benzodioxin-6-yl)benzamide] | > 2000 |
| Cc1c(Cl)c(C(N)=O)nn1-c1cccc(C(=O)N(C)c2ccc3c(c2)OCO3)c1 [compound 074, 1-[3-[1,3-Benzodioxol-5-yl(methyl)carbamoyl]phenyl]-4-chloro-5-methyl-pyrazole-3-carboxamide] | > 2000 |
| CN(C(=O)c1cccc(-n2nc(C(F)(F)F)c(Cl)c2COc2ccc(C(=O)O)cc2)c1)c1ccc2c(c1)OC(F)(F)O2 [compound 177, 4-[[4-chloro-2-[3-[(2,2-difluoro-1,3-benzodioxol-5-yl)-methyl-carbamoyl]phenyl]-5-(trifluoromethyl)pyrazol-3-yl]methoxy]benzoic acid] | < 1000 |

More lines, now with the values ahead:

| EC50 [nM] | Structure (SMILES) |
| --- | --- |
| < 1000 | CCc1nc2ccc(N(C)C(=O)c3cccc(-n4nc(C)c(Cl)c4C)c3)cc2o1 [compound 076, 3-(4-Chloro-3,5-dimethyl-pyrazol-1-yl)-N-(2-ethyl-1,3-benzoxazol-6-yl)-N-methyl-benzamide] |
| < 1000 | Cc1nc2ccc(N(C)C(=O)c3cccc(-n4nc(C)c(Cl)c4C)c3)cc2o1 [compound 047, 3-(4-Chloro-3,5-dimethyl-pyrazol-1-yl)-N-methyl-N-(2-methyl-1,3-benzoxazol-6-yl)benzamide] |
| < 1000 | Cc1cn2cc(N(C)C(=O)c3cccc(-n4nc(C(F)(F)F)c(Cl)c4COc4ccc(C(=O)O)cc4)c3)ccc2n1 [compound 256, 4-[[4-Chloro-2-[3-[methyl-(2-methylimidazo[1,2-a]pyridin-6-yl)carbamoyl]phenyl]-5-(trifluoromethyl)pyrazol-3-yl]methoxy]benzoic acid] |
| < 1000 | CN(C(=O)c1cccc(-n2nc(C(F)(F)F)c(Cl)c2OCc2ccccc2)c1)c1ccc2c(c1)OCO2 [compound 134, N-(1,3-Benzodioxol-5-yl)-3-[5-benzyloxy-4-chloro-3-(trifluoromethyl)pyrazol-1-yl]-N-methyl-benzamide] |
| > 2000 | Cc1c(Cl)c(C(F)(F)F)nn1-c1cccc(C(=O)N(C)c2ccc3c(c2CO)OCO3)c1 [compound 209, 3-[4-chloro-5-methyl-3-(trifluoromethyl)pyrazol-1-yl]-N-[4-(hydroxymethyl)-1,3-benzodioxol-5-yl]-N-methyl-benzamide] |
| < 1000 | CN(C(=O)c1cccc(-n2nc(C(F)(F)F)c(Cl)c2COc2ccc(C(=O)O)cc2)c1)c1cnc2c(c1)OCO2 [compound 267, 4-[[4-Chloro-2-[3-[[1,3]dioxolo[4,5-b]pyridin-6-yl (methyl)carbamoyl]phenyl]-5-(trifluoromethyl)pyrazol-3-yl]methoxy]benzoic acid] |
| > 2000 | Cc1c(Cl)c(C(F)(F)F)nn1-c1cccc(C(=O)Nc2cc3c(cc2C#N)OCO3)c1 [compound 162, 3-[4-chloro-5-methyl-3-(trifluoromethyl)pyrazol-1-yl]-N-(6-cyano-1,3-benzodioxol-5-yl)benzamide] |
| < 1000 | CN(C(=O)c1cccc(-n2nc(C(F)(F)F)cc2-c2cccnc2)c1)c1ccc2c(c1)OCO2 [compound 193, N-(1,3-Benzodioxol-5-yl)-N-methyl-3-[5-(3-pyridyl)-3-(trifluoromethyl)pyrazol-1-yl]benzamide] |
| > 2000 | Cc1nn(-c2cccc(C(=O)N(C)c3ccc4c(c3)OCCN4)c2)c(C)c1Cl [compound 036, 3-(4-Chloro-3,5-dimethyl-pyrazol-1-yl)-N-(3,4-dihydro-2H-1,4-benzoxazin-4-ium-7-yl)-N-methyl-benzamide 2,2,2-trifluoroacetate] |
| < 1000 | CN(C(=O)c1cccc(-n2nc(C(F)(F)F)c(C#N)c2Oc2ccc(C(=O)OC(C)(C)C)cc2)c1)c1ccc2c(c1)OCO2 [compound 200, Tert-butyl 4-[2-[3-[1,3-benzodioxol-5-yl (methyl)carbamoyl]phenyl]-4-cyano-5-(trifluoromethyl)pyrazol-3-yl]oxybenzoate] |
| < 1000 | Cc1c(Cl)c(C(F)(F)F)nn1-c1cccc(C(=O)N(C)c2cc3c(cc2Cl)OCO3)c1 [compound 106, N-(6-Chloro-1,3-benzodioxol-5-yl)-3-[4-chloro-5-methyl-3-(trifluoromethyl)pyrazol-1-yl]-N-methyl-benzamide] |
